Literature values as cited in patent US20210123869A1, “METHOD FOR MEASURING PH OF TEST WATER” (MIURA CO., LTD., priority 2018, published 2021).

Details: value at 25° C.; two values for reagents acid-dissociated in two stages

Row | acid dissociation constant (pKa) | Molecule
1 | 6.3 | Cc1cc(C2(c3cc(C)c(O)c(Br)c3)OS(=O)(=O)c3ccccc32)cc(Br)c1O [bromocresol purple]
2 | 4.7 | Cc1c(C2(c3cc(Br)c(O)c(Br)c3C)OS(=O)(=O)c3ccccc32)cc(Br)c(O)c1Br [bromocresol green]
3 | 11.06 | alizarin yellow
